Key:
[1] = biological target: T1, STAT3 (Homo sapiens, UniProt P40763); test: SPR (Biacore T200, STAT3 amine-coupled to CM5 chip); format: binding
T1 construct: recombinant human STAT3 protein (rhSTAT3)

[2] = biological target: T1, STAT3; test: SPR (Biacore T200, STAT3 amine-coupled to CM5 chip); positive control measured by the authors; format: binding

T1 sequence (P40763 2-770): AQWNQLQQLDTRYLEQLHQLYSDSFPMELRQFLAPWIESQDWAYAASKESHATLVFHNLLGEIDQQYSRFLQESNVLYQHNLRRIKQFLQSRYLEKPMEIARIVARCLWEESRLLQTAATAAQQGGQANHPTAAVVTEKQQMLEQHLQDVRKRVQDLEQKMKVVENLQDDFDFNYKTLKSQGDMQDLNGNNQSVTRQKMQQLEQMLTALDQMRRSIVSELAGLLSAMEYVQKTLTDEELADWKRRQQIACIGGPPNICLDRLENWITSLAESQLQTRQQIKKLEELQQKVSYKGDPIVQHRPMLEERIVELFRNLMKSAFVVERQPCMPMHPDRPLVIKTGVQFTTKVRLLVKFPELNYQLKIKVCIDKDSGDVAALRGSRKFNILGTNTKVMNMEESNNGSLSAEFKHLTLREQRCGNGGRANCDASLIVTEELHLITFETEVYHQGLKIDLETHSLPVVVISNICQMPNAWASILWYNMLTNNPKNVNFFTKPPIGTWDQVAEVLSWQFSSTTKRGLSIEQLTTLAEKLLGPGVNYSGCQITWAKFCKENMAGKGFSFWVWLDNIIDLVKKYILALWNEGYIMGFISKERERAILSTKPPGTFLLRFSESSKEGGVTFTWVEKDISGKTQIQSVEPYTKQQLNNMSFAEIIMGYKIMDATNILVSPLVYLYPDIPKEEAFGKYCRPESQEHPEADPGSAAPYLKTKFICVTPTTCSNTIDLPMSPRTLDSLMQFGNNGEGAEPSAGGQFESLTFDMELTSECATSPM

Kd [1] [µM]	Compound	Kd [2] [µM]
45.3	CC1=C(O)C(=O)C=C2C1=CC=C1[C@@]2(C)CC[C@@]2(C)[C@@H]3C[C@](C)(C(=O)NCCc4cccs4)CC[C@]3(C)CC[C@]12C [4m, 3-Hydroxy-9β,13α-dimethyl-2-oxo-24,25,26-trinoroleana-1(10),3,5,7-tetraen-29-oic acid 2–(2-thienyl) ethylamide]	–
–	CC1=C(O)C(=O)C=C2C1=CC=C1[C@@]2(C)CC[C@@]2(C)[C@@H]3C[C@](C)(C(=O)O)CC[C@]3(C)CC[C@]12C [CEL, Celastrol]	60.4
